Reference: ChEMBL document CHEMBL1201862, “PubChem BioAssay data set” (2004)
Calls of active or inactive are those of the source.

Tests used:
Hexokinase = target: T1, Hexokinase (Trypanosoma brucei, UniProt Q38C41); test: Confirmation assay for inhibitors of Trypanosoma brucei hexokinase 1-Analogue-first series. [Related pubchem assays (depositor defined):AID1430, AID1632, AID2516, AID2560, AID2579, AID2600, AID449725, AID492951]; format: functional
T1 sequence (Q38C41 whole entry): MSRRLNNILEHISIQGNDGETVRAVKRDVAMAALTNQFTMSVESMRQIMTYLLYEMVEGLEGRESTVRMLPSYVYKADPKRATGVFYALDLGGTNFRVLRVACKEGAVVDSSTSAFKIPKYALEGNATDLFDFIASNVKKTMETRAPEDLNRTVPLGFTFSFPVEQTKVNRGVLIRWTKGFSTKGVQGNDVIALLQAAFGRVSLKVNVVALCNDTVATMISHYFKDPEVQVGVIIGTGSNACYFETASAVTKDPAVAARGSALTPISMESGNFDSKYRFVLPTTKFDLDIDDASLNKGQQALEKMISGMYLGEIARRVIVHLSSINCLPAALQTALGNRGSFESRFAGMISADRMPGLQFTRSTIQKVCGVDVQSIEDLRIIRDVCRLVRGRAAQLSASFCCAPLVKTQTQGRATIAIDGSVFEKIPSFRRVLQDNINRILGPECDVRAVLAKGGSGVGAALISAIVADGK

[1] = target: G-protein coupled receptor 55 (Homo sapiens, UniProt Q9Y2T6); test: selective activators of receptor GPR55 – imaging, U2OS cells, beta-arrestin-GFP redistribution, primary screen (AID 1961); format: functional
G-protein coupled receptor 55, sequence (Q9Y2T6 whole entry): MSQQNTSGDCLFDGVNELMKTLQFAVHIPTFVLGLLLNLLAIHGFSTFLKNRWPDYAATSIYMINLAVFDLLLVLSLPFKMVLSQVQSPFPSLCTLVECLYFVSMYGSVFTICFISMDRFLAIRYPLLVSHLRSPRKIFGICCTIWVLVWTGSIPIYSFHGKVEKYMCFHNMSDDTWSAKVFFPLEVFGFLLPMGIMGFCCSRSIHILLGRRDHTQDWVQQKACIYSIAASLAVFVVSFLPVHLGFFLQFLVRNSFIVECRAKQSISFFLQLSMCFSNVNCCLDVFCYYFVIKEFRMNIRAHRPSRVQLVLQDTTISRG

[2] = viability of uninfected HEp-2 cells – cell-based, HTS, cytotoxicity control for RSV inhibitor project, dose response (AID 2410); format: functional; details: human respiratory syncytial virus
[3] = target: Peroxisome proliferator-activated receptor gamma/Nuclear receptor coactivator 3 (Homo sapiens, UniProt P37231); format: functional;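 further: agonist potency for raising coactivator recruitment to the receptor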
Peroxisome proliferator-activated receptor gamma/Nuclear receptor coactivator 3, sequence (P37231 whole entry): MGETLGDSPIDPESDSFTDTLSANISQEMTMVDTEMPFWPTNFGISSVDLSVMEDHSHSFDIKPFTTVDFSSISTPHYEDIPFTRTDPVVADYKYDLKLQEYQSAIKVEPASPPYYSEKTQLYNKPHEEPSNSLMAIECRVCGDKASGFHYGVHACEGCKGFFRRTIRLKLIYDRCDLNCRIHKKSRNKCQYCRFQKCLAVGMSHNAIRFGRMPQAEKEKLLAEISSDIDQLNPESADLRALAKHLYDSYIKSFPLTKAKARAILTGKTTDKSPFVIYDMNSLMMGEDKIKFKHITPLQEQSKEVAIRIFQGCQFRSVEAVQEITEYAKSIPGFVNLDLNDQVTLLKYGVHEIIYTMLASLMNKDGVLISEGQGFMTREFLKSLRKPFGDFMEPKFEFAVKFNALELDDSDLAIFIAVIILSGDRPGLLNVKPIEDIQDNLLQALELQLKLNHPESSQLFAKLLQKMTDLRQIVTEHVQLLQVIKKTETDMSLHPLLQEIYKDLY
Peroxisome proliferator-activated receptor gamma/Nuclear receptor coactivator 3, sequence (Q9Y6Q9 whole entry, further chain): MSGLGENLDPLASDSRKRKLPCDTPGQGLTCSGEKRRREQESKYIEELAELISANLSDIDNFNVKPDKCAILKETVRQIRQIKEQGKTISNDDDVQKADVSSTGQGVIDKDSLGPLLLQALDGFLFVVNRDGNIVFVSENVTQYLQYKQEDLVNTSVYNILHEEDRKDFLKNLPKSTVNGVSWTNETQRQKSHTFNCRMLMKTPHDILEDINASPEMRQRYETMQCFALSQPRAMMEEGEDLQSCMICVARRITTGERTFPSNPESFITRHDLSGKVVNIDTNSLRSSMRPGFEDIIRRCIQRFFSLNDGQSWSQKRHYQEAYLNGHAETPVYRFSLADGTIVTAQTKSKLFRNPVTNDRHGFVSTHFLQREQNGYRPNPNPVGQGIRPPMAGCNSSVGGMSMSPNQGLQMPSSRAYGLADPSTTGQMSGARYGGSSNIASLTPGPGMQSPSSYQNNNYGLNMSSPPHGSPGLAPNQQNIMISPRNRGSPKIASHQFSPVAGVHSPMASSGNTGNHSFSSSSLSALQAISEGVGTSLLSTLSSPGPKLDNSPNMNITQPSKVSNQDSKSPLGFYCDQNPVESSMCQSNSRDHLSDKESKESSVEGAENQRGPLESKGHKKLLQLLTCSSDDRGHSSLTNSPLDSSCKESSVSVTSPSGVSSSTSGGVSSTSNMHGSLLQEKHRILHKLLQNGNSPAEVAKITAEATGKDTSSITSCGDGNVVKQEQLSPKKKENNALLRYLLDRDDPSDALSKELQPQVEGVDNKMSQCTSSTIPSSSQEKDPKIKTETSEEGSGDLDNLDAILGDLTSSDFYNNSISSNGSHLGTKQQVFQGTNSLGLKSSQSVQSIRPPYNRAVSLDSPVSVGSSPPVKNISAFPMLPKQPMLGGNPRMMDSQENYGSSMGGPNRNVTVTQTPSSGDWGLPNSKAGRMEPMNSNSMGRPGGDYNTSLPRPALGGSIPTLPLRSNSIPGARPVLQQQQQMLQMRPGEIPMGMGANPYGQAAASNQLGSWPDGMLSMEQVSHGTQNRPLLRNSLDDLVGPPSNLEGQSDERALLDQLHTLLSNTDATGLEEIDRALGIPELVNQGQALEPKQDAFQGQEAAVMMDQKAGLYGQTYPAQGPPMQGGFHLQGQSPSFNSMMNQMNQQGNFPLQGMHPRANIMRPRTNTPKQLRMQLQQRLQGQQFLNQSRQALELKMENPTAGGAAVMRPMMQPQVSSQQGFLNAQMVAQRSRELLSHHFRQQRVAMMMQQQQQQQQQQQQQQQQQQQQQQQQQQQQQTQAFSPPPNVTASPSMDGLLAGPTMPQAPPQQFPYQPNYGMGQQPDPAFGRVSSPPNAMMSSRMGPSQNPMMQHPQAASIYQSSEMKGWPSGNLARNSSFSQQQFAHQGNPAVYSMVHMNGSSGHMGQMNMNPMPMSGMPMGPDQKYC

[4] = NIH3T3 cell viability loss – ATP luminescence, mouse fibroblasts, counter-screen, dose response (AID 2010); format: functional, cell-based;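 further: cells exposed to compound for about 90 hours before reading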
[5] = target: Peroxisome proliferator-activated receptor gamma/Nuclear receptor coactivator 2 (Homo sapiens, UniProt P37231); format: functional;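 further: agonist potency for raising coactivator recruitment to the receptor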
[6] = target: Peroxisome proliferator-activated receptor gamma/Nuclear receptor coactivator 1 (Homo sapiens, UniProt P37231); format: functional;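 further: agonist potency as compounds enhance coactivator SRC-1 recruitment to PPARgamma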
[7] = Trypanosoma cruzi growth suppression in host cells – NIH3T3 host cells, beta-gal luminescence, confirmation (AID 2044); format: functional, cell-based;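 further: intracellular parasites grown in NIH/3T3 mouse fibroblasts as host cells; luminescent beta-galactosidase reporter signal from transgenic T. cruzi replicating inside host cells; inhibitors lower the luminescence signal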
[8] = mitochondrial function rescue without frataxin homolog – Friedreich's ataxia, plus single-dose screen, dose response (AID 1465); format: functional;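 further: yeast depleted of Yfh1p frataxin homolog grown on glycerol needing respiration; WST-1 tetrazolium dye reduction as measure of cellular dehydrogenase metabolic activity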
[9] = fluconazole-exposed Candida albicans growth modulators – fluorescence, retest, confirmation (AID 2467); format: functional, cell-based
Streptococcus = test: GAS UMAA2166 growth inhibition – luminescence, BacTiterGlo, counter-screen for streptokinase expression inhibitor project, dose response (AID 1915); format: functional, organism-based;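 further: potency for reduction of bacterial viability or growth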
Streptokinase A = target: T2, Streptokinase A (Streptococcus pyogenes serotype M1, UniProt P10520); test: viability-normalized secreted streptokinase activity reduction – plasminogen activation absorbance, OD405, dose response (AID 1914); format: functional, Streptococcus pyogenes M1 GAS;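 further: secreted streptokinase activity via plasminogen activation per viability signal from cell pellet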
T2 sequence (P10520 whole entry): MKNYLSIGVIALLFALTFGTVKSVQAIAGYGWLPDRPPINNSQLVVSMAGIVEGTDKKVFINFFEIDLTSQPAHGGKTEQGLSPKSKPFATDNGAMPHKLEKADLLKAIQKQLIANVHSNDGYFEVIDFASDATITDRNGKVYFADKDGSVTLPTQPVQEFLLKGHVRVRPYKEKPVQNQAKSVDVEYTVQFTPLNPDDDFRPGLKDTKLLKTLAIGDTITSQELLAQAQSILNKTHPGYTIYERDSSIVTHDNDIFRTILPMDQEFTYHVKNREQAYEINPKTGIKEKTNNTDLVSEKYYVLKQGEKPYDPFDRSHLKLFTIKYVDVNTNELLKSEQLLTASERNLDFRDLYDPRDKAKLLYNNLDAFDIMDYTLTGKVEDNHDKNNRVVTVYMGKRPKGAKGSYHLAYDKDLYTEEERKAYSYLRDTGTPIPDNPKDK

[10] = test system: Streptococcus sp. 'group A'; test: Streptococcus pyogenes SK(-)GAS viability under kanamycin – luminescence, BacTiterGlo, confirmation, counter-screen for streptokinase expression inhibitor project, dose response (AID 1900); format: functional, organism-based
[11] = NIH-3T3 fibroblast cytotoxicity, dose response, cytotoxicity control, cell-based, fluorescence, Alamar Blue, secondary assay (AID 2327); format: functional;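 further: NIH-3T3 mouse fibroblasts cultured with fluconazole at 8 µg/mL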
[12] = target: T3, Short transient receptor potential channel 4 (Mus musculus, UniProt Q9QUQ5); test: calcium entry via TRPC4 opening agents – cell-based, HEK293 TRPC4/mu-opioid, Fluo-4 calcium, dose response (AID 434937); format: functional
T3 sequence (Q9QUQ5 whole entry): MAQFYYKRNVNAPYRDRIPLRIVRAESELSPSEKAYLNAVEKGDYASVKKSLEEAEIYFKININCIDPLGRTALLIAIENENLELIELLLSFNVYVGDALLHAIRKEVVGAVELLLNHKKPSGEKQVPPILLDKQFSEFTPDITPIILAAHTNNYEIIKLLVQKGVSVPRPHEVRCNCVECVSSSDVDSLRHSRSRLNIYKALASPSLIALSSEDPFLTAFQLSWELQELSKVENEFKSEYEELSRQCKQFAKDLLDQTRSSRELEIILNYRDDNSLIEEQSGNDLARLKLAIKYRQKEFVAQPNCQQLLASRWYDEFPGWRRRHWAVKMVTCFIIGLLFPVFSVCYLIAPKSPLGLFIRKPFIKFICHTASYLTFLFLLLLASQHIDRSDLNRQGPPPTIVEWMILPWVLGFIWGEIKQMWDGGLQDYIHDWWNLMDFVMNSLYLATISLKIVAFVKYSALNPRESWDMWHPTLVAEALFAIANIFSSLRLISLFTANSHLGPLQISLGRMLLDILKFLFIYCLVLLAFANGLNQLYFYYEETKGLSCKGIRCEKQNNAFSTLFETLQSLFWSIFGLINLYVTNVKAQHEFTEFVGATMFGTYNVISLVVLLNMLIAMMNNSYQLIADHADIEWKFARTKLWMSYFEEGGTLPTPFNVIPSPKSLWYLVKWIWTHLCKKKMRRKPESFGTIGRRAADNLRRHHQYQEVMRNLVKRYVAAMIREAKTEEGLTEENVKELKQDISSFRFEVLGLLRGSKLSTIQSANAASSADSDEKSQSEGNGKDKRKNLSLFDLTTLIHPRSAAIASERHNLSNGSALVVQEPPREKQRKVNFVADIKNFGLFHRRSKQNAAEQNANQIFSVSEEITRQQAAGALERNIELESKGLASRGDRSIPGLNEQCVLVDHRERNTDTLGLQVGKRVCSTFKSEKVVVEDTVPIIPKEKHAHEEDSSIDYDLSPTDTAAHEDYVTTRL

Large T antigen = Large T antigen (Simian virus 40, UniProt P03070); format: functional, Betapolyomavirus macacae;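 further: Confirmatory-stage PubChem screen for compounds that inhibit SV40 T antigen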
Large T antigen, sequence (P03070 whole entry): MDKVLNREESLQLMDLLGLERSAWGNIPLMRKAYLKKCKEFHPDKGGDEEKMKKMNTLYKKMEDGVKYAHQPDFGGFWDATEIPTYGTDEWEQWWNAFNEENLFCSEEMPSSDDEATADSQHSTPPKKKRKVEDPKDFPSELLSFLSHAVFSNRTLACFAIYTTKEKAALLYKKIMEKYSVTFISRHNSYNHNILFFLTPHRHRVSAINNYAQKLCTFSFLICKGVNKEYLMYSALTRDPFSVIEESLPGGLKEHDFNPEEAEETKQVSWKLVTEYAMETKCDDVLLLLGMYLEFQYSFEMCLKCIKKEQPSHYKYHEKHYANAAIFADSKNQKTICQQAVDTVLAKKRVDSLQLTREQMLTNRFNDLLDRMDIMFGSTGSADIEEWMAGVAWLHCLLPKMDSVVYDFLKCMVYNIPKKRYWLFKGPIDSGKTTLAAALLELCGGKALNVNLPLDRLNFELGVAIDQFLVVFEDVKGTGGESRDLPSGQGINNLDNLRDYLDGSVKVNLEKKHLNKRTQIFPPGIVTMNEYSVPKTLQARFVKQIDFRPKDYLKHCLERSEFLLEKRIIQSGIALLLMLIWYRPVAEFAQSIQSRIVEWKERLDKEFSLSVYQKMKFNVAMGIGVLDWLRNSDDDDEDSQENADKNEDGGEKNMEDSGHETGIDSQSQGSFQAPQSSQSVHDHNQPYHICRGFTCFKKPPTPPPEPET

Aminopeptidase N = target: T4, Aminopeptidase N (Plasmodium falciparum FcB1/Columbia, UniProt O96935); test: malaria alanyl aminopeptidase activity blockers – biochemical, fluorogenic H-Leu-NHMec substrate, 1536-well (AID 1445); parameters: species or system Plasmodium falciparum 3D7, 3D7
T4 sequence (O96935 whole entry): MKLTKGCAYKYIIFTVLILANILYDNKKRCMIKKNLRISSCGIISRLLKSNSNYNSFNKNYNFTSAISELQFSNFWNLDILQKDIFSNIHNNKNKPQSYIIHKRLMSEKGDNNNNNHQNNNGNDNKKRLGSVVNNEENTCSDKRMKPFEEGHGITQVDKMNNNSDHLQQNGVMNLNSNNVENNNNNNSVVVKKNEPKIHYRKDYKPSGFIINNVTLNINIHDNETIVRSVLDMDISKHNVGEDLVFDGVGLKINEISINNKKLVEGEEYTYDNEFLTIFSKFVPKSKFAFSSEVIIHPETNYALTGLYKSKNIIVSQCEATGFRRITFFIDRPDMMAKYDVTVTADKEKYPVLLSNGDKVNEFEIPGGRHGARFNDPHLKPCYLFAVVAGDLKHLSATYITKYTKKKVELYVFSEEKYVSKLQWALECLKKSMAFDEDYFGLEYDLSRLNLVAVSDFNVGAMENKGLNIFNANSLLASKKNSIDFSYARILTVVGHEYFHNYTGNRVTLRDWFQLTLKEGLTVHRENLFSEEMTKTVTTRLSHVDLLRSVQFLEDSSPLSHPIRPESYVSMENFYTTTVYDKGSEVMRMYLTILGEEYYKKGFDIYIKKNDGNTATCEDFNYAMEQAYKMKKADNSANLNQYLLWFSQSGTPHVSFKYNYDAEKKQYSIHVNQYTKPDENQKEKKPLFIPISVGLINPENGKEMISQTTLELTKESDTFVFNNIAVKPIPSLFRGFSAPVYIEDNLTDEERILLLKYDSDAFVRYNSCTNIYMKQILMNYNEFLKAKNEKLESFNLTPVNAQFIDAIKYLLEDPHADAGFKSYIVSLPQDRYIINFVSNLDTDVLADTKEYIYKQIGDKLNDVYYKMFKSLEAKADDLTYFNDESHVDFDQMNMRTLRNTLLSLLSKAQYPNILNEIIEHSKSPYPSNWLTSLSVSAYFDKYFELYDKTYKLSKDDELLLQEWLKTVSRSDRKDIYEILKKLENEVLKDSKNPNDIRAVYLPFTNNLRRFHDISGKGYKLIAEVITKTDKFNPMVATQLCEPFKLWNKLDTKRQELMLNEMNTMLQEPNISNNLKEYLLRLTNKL

Cytochrome P450 1A2 = target: T5, Cytochrome P450 1A2 (Homo sapiens, UniProt P05177);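 further: PubChem cytochrome P450 panel assay, CYP1A2 panel member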
T5 sequence (P05177 whole entry): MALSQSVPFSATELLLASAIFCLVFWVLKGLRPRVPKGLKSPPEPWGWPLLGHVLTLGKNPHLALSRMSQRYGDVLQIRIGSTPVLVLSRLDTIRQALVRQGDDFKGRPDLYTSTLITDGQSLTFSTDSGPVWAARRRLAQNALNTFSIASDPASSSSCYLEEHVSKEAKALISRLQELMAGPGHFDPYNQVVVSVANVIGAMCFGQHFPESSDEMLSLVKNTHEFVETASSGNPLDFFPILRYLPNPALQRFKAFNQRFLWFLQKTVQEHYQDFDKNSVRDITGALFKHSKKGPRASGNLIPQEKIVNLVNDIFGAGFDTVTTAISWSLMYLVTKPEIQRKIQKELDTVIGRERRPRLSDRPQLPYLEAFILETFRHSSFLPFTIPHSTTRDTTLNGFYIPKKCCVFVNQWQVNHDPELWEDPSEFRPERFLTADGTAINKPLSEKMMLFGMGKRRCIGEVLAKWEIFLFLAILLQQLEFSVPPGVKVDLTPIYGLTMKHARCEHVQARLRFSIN

Cytochrome P450 3A4 [13] = target: T6, Cytochrome P450 3A4 (Homo sapiens, UniProt P08684)
T6 sequence (P08684 whole entry): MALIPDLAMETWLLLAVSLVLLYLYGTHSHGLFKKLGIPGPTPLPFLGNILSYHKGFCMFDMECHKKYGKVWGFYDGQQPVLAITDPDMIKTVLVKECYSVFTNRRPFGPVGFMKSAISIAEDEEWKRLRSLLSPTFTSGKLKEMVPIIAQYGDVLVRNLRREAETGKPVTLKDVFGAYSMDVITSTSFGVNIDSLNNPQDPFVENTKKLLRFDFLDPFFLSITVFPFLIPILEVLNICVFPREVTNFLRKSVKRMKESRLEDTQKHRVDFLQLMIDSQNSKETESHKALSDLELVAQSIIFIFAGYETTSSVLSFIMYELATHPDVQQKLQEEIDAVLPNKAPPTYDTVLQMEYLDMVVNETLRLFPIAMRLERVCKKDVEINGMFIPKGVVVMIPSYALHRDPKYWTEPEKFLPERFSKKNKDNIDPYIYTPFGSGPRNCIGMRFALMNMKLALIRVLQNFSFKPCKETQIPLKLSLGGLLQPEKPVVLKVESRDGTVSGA

Cytochrome P450 2D6 = Cytochrome P450 2D6 (Homo sapiens, UniProt P10635); test: qHTS Assay for Inhibitors and Substrates of Cytochrome P450 2D6. [Related pubchem assays: 410 ]; format: ADME; details: read-out: Potency
Cytochrome P450 2D6, sequence (P10635 whole entry): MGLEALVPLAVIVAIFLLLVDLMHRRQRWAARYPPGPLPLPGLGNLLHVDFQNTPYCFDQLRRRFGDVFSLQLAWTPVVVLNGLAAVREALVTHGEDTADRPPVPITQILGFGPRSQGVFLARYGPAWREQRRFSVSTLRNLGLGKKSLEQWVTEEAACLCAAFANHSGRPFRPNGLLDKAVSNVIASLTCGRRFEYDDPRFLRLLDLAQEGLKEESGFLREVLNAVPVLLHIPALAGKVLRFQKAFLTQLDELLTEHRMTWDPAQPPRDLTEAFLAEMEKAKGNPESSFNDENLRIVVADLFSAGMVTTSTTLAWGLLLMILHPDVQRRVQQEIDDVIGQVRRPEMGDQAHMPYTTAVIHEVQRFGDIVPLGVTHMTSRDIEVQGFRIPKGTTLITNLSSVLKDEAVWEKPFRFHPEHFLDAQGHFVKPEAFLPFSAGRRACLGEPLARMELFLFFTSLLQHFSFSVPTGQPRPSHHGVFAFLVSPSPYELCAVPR

Cytochrome P450 2C9 [14] = target: T7, Cytochrome P450 2C9 (Homo sapiens, UniProt P11712); details: Potency
T7 sequence (P11712 whole entry): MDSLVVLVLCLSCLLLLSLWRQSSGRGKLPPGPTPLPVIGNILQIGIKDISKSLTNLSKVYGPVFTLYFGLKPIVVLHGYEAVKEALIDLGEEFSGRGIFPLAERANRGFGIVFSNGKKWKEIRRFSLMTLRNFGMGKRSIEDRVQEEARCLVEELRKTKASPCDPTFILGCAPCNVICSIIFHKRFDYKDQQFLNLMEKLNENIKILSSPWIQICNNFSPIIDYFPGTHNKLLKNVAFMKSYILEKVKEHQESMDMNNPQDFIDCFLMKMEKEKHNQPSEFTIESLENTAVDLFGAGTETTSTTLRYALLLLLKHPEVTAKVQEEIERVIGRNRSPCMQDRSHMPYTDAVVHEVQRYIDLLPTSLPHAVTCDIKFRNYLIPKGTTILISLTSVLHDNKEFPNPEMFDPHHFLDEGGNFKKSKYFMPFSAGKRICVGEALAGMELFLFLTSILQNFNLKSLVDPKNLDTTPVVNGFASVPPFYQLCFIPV

Cytochrome P450 2C9 [15] = target: T7, Cytochrome P450 2C9
Cytochrome P450 3A4 [16] = target: T6, Cytochrome P450 3A4; details: Potency

COc1cccc(C(=O)Nc2cc(Cl)ccc2C(=O)O)c1
IC50 (Hexokinase): 17.9 µM (active)

COc1cc2c(cc1NC(=O)CSc1ccc(C)cc1)oc1ccccc12
EC50 [1]: 1.15 µM (active) | CC50 [2]: 28.4 µM (active)

COc1ccc(C2=NN(c3nc(-c4ccc(CNC(C)=O)cc4)cs3)C(c3ccco3)C2)cc1 (stereo not given)
EC50 [1]: 1.04 µM (active)

COc1ccc(N2C(=O)/C(=C\NNS(=O)(=O)c3cccc([N+](=O)[O-])c3)c3ccccc3C2=O)cc1OC
EC50 [3]: > 79.4 µM (not active) | EC50 [4]: > 60 µM (not active) | EC50 [5]: > 79.4 µM (not active) | EC50 [6]: > 79.4 µM (not active) | EC50 [7]: 18.2 µM (active)

CCCCC(=O)NNC(=S)NC(=O)C(c1ccccc1)c1ccccc1
EC50 [8]: > 100 µM (active) | EC50 [9]: 2.15 µM (active) | EC50 (Streptococcus): 25.1 µM (active) | EC50 (Streptokinase A): > 150 µM (not active) | EC50 [10]: 0.788 µM (active) | EC50 [11]: 19.6 µM (inconclusive) | EC50 [12]: 2.66 µM (active)

Cn1c(SCc2cccc3ccccc23)nnc1-c1ccco1
CC50 [2]: > 50 µM (active) | IC50 (cells): 46.5 µM (active)

CCOC(=O)c1c(N2C(=O)Nc3cc(Cl)c(Cl)cc3N2O)sc2c1CCCCC2
IC50 (Large T antigen): > 100 µM (active) | IC50 (Aminopeptidase N): 81.7 µM (active) | AC50 (Cytochrome P450 1A2): 39.8 µM (inconclusive) | AC50 (Cytochrome P450 3A4 [13]): 10 µM (inconclusive)

COc1ccc(/C=C/N(CCc2ccc(OC)c(OC)c2)C(=O)C(F)(F)F)cc1
AC50 (Cytochrome P450 2D6): 7.94 µM (inconclusive) | AC50 (Cytochrome P450 2C9 [14]): 3.16 µM (inconclusive)

C/C=C/c1ccc(OCCOc2cc(C=O)ccc2OC)c(OC)c1
IC50 (Aminopeptidase N): 88.9 µM (active)

CC[C@H](C)N(C)C(=O)c1cc2ccccc2c(-c2ccccc2Cl)n1
AC50 (Cytochrome P450 2C9 [14]): 15.8 µM (inconclusive) | AC50 (Cytochrome P450 2C9 [15]): 31.6 µM (inconclusive) | AC50 (Cytochrome P450 3A4 [13]): 20 µM (inconclusive)

Cc1cc(NC(=O)CSc2nc3ccsc3c(=O)n2NC(=O)c2ccccc2)no1
IC50 (Aminopeptidase N): 23.7 µM (active)

COCc1nc(-c2cc(OC)c(OC)c(OC)c2)no1
EC50 [1]: > 32 µM (inactive)

COc1ccc(C(CN=C(S)NCc2ccccc2)N2CCCC2)cc1 (stereo not given)
IC50 (cells): 24.2 µM (active)

Cc1ccc2c(C)c(C(=O)N3CCN(c4ccncc4)CC3)oc2c1C
CC50 [2]: 46.9 µM (active) | IC50 (cells): 23.9 µM (active)

CN(C)C(=O)c1ccc(-c2nc(N(C)C)c3ccccc3n2)cc1
AC50 (Cytochrome P450 2D6): 12.6 µM (inconclusive) | AC50 (Cytochrome P450 3A4 [16]): 1.58 µM (inconclusive)

c1ccc(-c2oc3ncnc(NCCCN4CCOCC4)c3c2-c2ccccc2)cc1
EC50 [3]: > 79.4 µM (not active) | EC50 [5]: > 79.4 µM (not active) | EC50 [6]: > 79.4 µM (not active)

C=CCC1C=CC(Oc2ccc(OC)cc2)C(COC(=O)c2ccc(Br)cc2)O1 (stereo not given)
AC50 (Cytochrome P450 2D6): 6.31 µM (inconclusive) | AC50 (Cytochrome P450 2C9 [14]): 3.98 µM (inconclusive)
